Test results published in ChEMBL document CHEMBL2417488, “Inhibitory effects of p-dodecylaminophenol on the invasiveness of human fibrosarcoma cell line HT1080” (Bioorg Med Chem, 2013).
Values belong to the compound of their own block, whether it stands above or below them. Activity calls are given as the source filed them. The rule behind the calls is not given here.

Tests used:
HT-1080 [1] = test: Antiinvasive activity in human HT1080 cells assessed as reduction of cell number at 1 uM after 22 hrs by matrigel invasion assay; assay type: functional; design: scale not given: the % may be the effect or the level left
[2] = target: Matrix metalloproteinase-9 (Homo sapiens) (UniProt P14780); test: Inhibition of MMP9 activity in human HT1080 cells at 1 uM after 24 hrs; assay type: cell-based; conditions: HT-1080
[3] = (§1) Toxicity in human HT1080 cells assessed as reduction of cell growth at 1 uM after 24 hrs; assay type: cell-based, HT-1080; conditions: HT1080 cells, read-out: Activity
HT-1080 [4] = test: Reduction of MMP9 mRNA level in human HT1080 cells at 1 uM after 24 hrs by RT-PCR analysis relative to control; assay type: functional
HT-1080 [5] = test: Reduction of MMP2 mRNA level in human HT1080 cells at 1 uM after 24 hrs by RT-PCR analysis relative to control; assay type: functional, cell-based
HT-1080 [6] = test: Induction of RECK mRNA expression in human HT1080 cells at 1 uM after 24 hrs by RT-PCR analysis relative to control; assay type: functional
[7] = target: 72 kDa type IV collagenase (Homo sapiens) (UniProt P08253); test: Inhibition of MMP2 activity in human HT1080 cells at 1 uM after 24 hrs; assay type: cell-based; conditions: HT-1080
HT-1080 [8] = test: Cytotoxicity against human HT1080 cells; assay type: functional, cell-based
HT-1080 [9] = test: as §1; assay type: cell-based; conditions: ht-1080, 24 h, 1 µM
HT-1080 [10] = test: Antiinvasive activity in human HT1080 cells at 50 uM; assay type: functional
HT-1080 [11] = test: Reduction of proMMP2 level in human HT1080 cells after 24 to 72 hrs by gelatin zymography analysis; assay type: functional, cell-based
[12] = Cytotoxicity against human HuCCT1 cells; assay type: functional, cell-based; conditions: HuCCT-1
HT-1080 [13] = test: Induction of apoptosis in human HT1080 cells assessed as increase in caspase-3 activity at 1 uM relative to control; assay type: functional, cell-based
HT-1080 [14] = test: Cell cycle arrest in human HT1080 cells assessed as accumulation at G2/M phase at 1 uM after 72 hrs using propidium iodide staining by FACS analysis relative to control; assay type: functional
HT-1080 [15] = test: Cell cycle arrest in human HT1080 cells assessed as accumulation at G0/G1 phase at 4 uM after 72 hrs using propidium iodide staining by FACS analysis relative to control; assay type: functional
HT-1080 [16] = test: Induction of RECK protein expression in human HT1080 cells at 1 uM after 24 hrs by electrophoresis analysis relative to control; assay type: functional
HT-1080 [17] = test: Induction of apoptosis in human HT1080 cells assessed as increase in caspase-3 activity at 10 uM relative to control; assay type: functional
HT-1080 [18] = test: Cytotoxicity against human HT1080 cells assessed as growth inhibition after 72 hrs by trypan blue dye exclusion assay; assay type: functional, cell-based; conditions: HT-1080, 72 h
HT-1080 [19] = test: Cell cycle arrest in human HT1080 cells assessed as accumulation at S phase after 72 hrs using propidium iodide staining by FACS analysis; assay type: functional, cell-based
HT-1080 [20] = test: Cell cycle arrest in human HT1080 cells assessed as accumulation at S phase at 1 uM after 72 hrs using propidium iodide staining by FACS analysis relative to control; assay type: functional
HT-1080 [21] = test: Reduction of MMP9 level in human HT1080 cells after 24 to 72 hrs by gelatin zymography analysis; assay type: functional, cell-based
HT-1080 [22] = test: Induction of RECK protein expression in human HT1080 cells at 4 uM after 24 hrs by electrophoresis analysis relative to control; assay type: functional
HT-1080 [23] = test: Cell cycle arrest in human HT1080 cells assessed as accumulation at G0/G1 phase at 10 uM after 72 hrs using propidium iodide staining by FACS analysis relative to control; assay type: functional
HT-1080 [24] = test: Cell cycle arrest in human HT1080 cells assessed as accumulation at G2/M phase at 10 uM after 72 hrs using propidium iodide staining by FACS analysis relative to control; assay type: functional
HT-1080 [25] = test: Reduction of proMMP9 level in human HT1080 cells after 24 to 72 hrs by gelatin zymography analysis; assay type: functional, cell-based
HT-1080 [26] = test: Cell cycle arrest in human HT1080 cells assessed as accumulation at S phase at 4 uM after 72 hrs using propidium iodide staining by FACS analysis relative to control; assay type: functional
HT-1080 [27] = test: Induction of apoptosis in human HT1080 cells assessed as increase in caspase-3 activity at 4 uM relative to control; assay type: functional
HT-1080 [28] = test: Induction of RECK protein expression in human HT1080 cells after 24 hrs by electrophoresis analysis relative to control; assay type: functional, cell-based
HT-1080 [29] = test: Reduction of MMP2 level in human HT1080 cells after 24 to 72 hrs by gelatin zymography analysis; assay type: functional, cell-based
HT-1080 [30] = test: Cytotoxicity against human HT1080 cells assessed as growth inhibition at 4 to 10 uM after 72 hrs by trypan blue dye exclusion assay relative to control; assay type: functional
HT-1080 [31] = test: Cell cycle arrest in human HT1080 cells assessed as accumulation at G2/M phase at 4 uM after 72 hrs using propidium iodide staining by FACS analysis relative to control; assay type: functional
HT-1080 [32] = test: Cell cycle arrest in human HT1080 cells assessed as accumulation at G0/G1 phase at 1 uM after 72 hrs using propidium iodide staining by FACS analysis relative to control; assay type: functional
HT-1080 [33] = test: Cell cycle arrest in human HT1080 cells assessed as accumulation at S phase at 10 uM after 72 hrs using propidium iodide staining by FACS analysis relative to control; assay type: functional
HT-1080 [34] = test: Antiinvasive activity in human HT1080 cells at 30 uM; assay type: functional

Sequence of 72 kDa type IV collagenase (Homo sapiens) (P08253 110-660 limits assumed): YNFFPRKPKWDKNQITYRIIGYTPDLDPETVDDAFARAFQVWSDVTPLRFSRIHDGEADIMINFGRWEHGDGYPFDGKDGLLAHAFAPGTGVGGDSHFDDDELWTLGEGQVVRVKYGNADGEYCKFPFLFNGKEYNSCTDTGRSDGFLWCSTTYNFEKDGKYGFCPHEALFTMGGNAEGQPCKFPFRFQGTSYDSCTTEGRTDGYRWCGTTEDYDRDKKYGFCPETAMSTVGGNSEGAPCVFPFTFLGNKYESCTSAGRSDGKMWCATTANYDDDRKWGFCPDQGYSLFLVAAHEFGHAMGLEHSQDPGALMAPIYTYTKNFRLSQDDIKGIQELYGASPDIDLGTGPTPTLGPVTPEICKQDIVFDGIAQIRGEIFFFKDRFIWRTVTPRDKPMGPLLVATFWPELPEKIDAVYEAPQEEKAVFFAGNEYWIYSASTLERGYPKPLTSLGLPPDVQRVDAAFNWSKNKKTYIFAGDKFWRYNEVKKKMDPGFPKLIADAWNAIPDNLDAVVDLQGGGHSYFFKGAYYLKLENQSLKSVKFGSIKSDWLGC
Sequence of Matrix metalloproteinase-9 (Homo sapiens) (P14780 whole entry): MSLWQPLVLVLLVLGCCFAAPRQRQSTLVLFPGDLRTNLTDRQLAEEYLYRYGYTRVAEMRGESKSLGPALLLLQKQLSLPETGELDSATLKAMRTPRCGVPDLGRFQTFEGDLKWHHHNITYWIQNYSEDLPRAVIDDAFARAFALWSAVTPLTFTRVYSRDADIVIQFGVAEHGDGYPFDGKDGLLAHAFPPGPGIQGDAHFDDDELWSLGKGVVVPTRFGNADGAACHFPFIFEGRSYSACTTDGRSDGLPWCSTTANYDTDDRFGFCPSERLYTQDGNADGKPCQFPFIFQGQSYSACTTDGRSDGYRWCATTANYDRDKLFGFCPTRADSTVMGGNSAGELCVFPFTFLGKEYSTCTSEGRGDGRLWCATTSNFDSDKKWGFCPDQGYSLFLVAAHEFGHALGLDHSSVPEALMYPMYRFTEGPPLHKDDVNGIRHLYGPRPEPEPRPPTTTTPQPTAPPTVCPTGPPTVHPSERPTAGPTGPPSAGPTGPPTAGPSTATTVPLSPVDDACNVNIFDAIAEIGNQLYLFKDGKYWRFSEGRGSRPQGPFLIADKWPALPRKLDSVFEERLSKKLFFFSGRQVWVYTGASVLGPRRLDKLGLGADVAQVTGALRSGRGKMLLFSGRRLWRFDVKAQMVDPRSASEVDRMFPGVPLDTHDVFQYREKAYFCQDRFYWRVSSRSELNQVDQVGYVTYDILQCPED

- inhibition [2]: inactive
- inhibition [7]: inactive
Compound: CC1=C(/C=C/C(C)=C/C=C/C(C)=C/C(=O)Nc2ccc(O)cc2)C(C)(C)CCC1 [FENRETINIDE]
- Activity (HT-1080 [1]): 20%
- inhibition at 24 h, 1 µM [3]: 4%
- Activity (HT-1080 [4]): inactive
- Activity (HT-1080 [5]): inactive
- Activity (HT-1080 [6]): inactive

Compound: COC(=O)[C@H](CCSC)NC(=O)c1ccc(CNCc2c[nH]cn2)cc1-c1ccccc1C
- IC50 (HT-1080 [8]): > 50000 nM

- inhibition [2]: inactive
- inhibition [7]: inactive
Compound: CC1=C(/C=C/C(C)=C/C=C/C(C)=C/C(=O)O)C(C)(C)CCC1 [TRETINOIN]
- Activity (HT-1080 [1]): inactive
- Activity (HT-1080 [9]): Non-toxic
- Activity (HT-1080 [4]): inactive
- Activity (HT-1080 [5]): inactive
- Activity (HT-1080 [6]): inactive

Compound: O=S(=O)(c1cccc2cnccc12)N1CCCNCC1 [FASUDIL]
- Activity (HT-1080 [10]): 26%

Compound: O=C(CCCCCCSc1ccc2ccccc2c1)NO
- IC50 (HT-1080 [8]): 3000 nM

Compound: COc1cc(C2Oc3cc([C@H]4Oc5cc(O)cc(O)c5C(=O)[C@@H]4O)ccc3OC2CO)ccc1O (some centres undefined) [SILIBININ]
- IC50 (HT-1080 [8]): 400000 nM

- IC50 (HT-1080 [11]): > 10000 nM
- inhibition [2]: 50%
- IC50 (HT-1080 [21]): 700 nM
- IC50 (HT-1080 [25]): 900 nM
- IC50 (HT-1080 [29]): 2400 nM
- inhibition [7]: inactive
Compound: CCCCCCCCCCCCNc1ccc(O)cc1
- Activity (HT-1080 [1]): 80%
- Activity (HT-1080 [11]): Dose-dependent effect
- IC50 [12]: 2000 nM
- Activity (HT-1080 [13]): inactive
- Activity (HT-1080 [14]): 28.2%
- Activity (HT-1080 [15]): 58.5%
- Activity (HT-1080 [16]): 140%
- fold change (FC) (HT-1080 [17]): 4.8
- IC50 (HT-1080 [18]): 1000 nM
- Activity (HT-1080 [19]): Dose-dependent effect
- inhibition at 24 h, 1 µM [3]: 8%
- Activity (HT-1080 [20]): 8.7%
- Activity (HT-1080 [21]): Dose-dependent effect
- Activity (HT-1080 [4]): 60%
- Activity (HT-1080 [22]): 175%
- Activity (HT-1080 [5]): inactive
- Activity (HT-1080 [23]): 50.6%
- Activity (HT-1080 [24]): 30.3%
- Activity (HT-1080 [25]): Dose-dependent effect
- Activity (HT-1080 [26]): 11%
- fold change (FC) (HT-1080 [27]): 3.2
- Activity (HT-1080 [28]): Dose-dependent effect
- Activity (HT-1080 [6]): 162%
- Activity (HT-1080 [29]): Dose-dependent effect
- growth inhibition (GI) (HT-1080 [30]): 77%
- Activity (HT-1080 [31]): 30.4%
- Activity (HT-1080 [32]): 63.1%
- Activity (HT-1080 [33]): 19.1%

Compound: C[C@@H](N)c1ccc(C(=O)Nc2ccncc2)cc1.Cl
- Activity (HT-1080 [34]): 50%

Compound: O=S(=O)(c1cccc2c(O)nccc12)N1CCCNCC1 [HYDROXYFASUDIL]
- Activity (HT-1080 [10]): 50%
